Consider one compound from patent US20190373936A1, “COMPOSITION, METHOD FOR PRODUCING THE SAME AND USE THEREOF” (INFINITUS (CHINA) COMPANY LTD., priority 2018, published 2019).

Test [1] is described as follows: Body weight of SD rats fed high-fat diet during administration of test sample. The test is classed as in vivo. The conditions noted are these: positive control groups (omega 150 mg/kg; atorvastatin calcium 0.83 mg/kg), 30 days. From the text:
In the present disclosure, reference was made to the method for testing the function of facilitating lowering blood-lipid in the Technical specification for health care food inspection and evaluation (2012 Updated Edition). SPF grade male SD rats were used as experimental animals. After the adaption period, an animal model of the combined hyperlipidemia was established, and the rats were randomly divided into groups according to TC level. Three dosage groups were continuously administered with the composition provided by the present disclosure by gavage at a dosage of 500 mg/kg·BW (equaled to 5 times of recommendation amount for human), 1000 mg/kg·BW (equaled to 10 times of recommendation amount for human) and 2500 mg/kg·BW (equaled to 25 times of recommendation amount for human), respectively. […]
After grouping, each dosage group was orally administered with the test sample every day, the two positive groups were respectively orally administered with positive control samples (diluted Omega solution and diluted atorvastatin calcium solution), and the blank control group and the model control group were administered with the same volume of distilled water. […] After blood collection, the serum was quickly separated, and levels of TC, TG, HDL-C, LDL-C, ox-HDL-C, ox-LDL-C, apo-A1 and apo-β in serum were measured.

Test [2] has as its system SD rats of combined hyperlipidemia model. In words: Function of facilitating lowering blood lipid: serum lipid indexes by ELISA in combined hyperlipidemia SD rat model. In kind it is in vivo. From the text:
In the present disclosure, reference was made to the method for testing the function of facilitating lowering blood-lipid in the Technical specification for health care food inspection and evaluation (2012 Updated Edition). SPF grade male SD rats were used as experimental animals. After the adaption period, an animal model of the combined hyperlipidemia was established, and the rats were randomly divided into groups according to TC level. Three dosage groups were continuously administered with the composition provided by the present disclosure by gavage at a dosage of 500 mg/kg·BW (equaled to 5 times of recommendation amount for human), 1000 mg/kg·BW (equaled to 10 times of recommendation amount for human) and 2500 mg/kg·BW (equaled to 25 times of recommendation amount for human), respectively. The blank control group and the model control group were administered with the same volume of distilled water by gavage. Each group was weighed regularly. 30 days after the administration, blood samples were collected without fasting, and levels of TC, TG, HDL-C, LDL-C, ox-HDL, ox-LDL, apo-A1 and apo-β were tested.
Name: SPF grade male SD rats, body weight 170˜220 g
High-fat diet: maintenance diet with 20.0% sucrose, 15% lard, 1.2% cholesterol, 0.2% sodium cholate, appropriate amounts of casein, calcium hydrogen phosphate, rock powders and so on. Except for crude fat, water content, crude protein, crude fat, crude fiber, ash, calcium, phosphate and calcium:phosphate ratio reached the national standard for maintenance diet.
Surgical instruments, centrifuges, centrifuge tubes, electronic balances, punchers, gavage needles, enzyme-labeled instruments, heparin sodium, anesthetic, formalin, refrigerators, vortex mixer, weighing scale, serum total cholesterol (TC) ELISA kit, serum triglyceride (TG) ELISA kit, serum high-density lipoprotein cholesterol (HDL-C) ELISA kit, serum low-density lipoprotein cholesterol (LDL-C) ELISA kit, serum oxidized high-density lipoprotein cholesterol (ox-HDL-C) ELISA kit, serum oxidized low-density lipoprotein cholesterol (ox-LDL-C) ELISA kit, serum apolipoprotein A1 (apo-A1) ELISA kit, and serum apolipoprotein (apo-β) ELISA kit.
There were three dosage groups, two positive control groups, one blank control group and one model control group. In low-dosage group, the test sample was administered at a dosage of 5 times of the recommendation amount for human (500 mg/kg), and in middle-dosage and high-dosage groups, the dosages equaled to 10 times (1000 mg/kg) and 25 times (2500 mg/kg) of the recommendation amount for human. The dosage of the positive control group equaled to 5 times (omega: 150 mg/kg; and atorvastatin calcium: 0.83 mg/kg) of the recommendation amount for human. The blank control group and the model control group were administered with equal amount of distilled water at the same volume by gavage. The duration of the administration of the test sample was generally 30 days.
The compositions provided by the examples 1˜3, the powder formulations provided by the examples 4˜6 were accurately weighed, and an appropriate amount of distilled water was added to prepare the low-, middle- and high-dosages samples. The samples were prepared right before use.
(1) Adaptive period: In a barrier system, the rats were fed on maintenance diet and observed for 5˜7 days.
The rats were randomly divided into 22 groups, 6 per group. One group was fed on the maintenance diet as the blank control group. The other 21 groups were fed on high-fat diet as the model control group. The rats were weighed once a week.
20 days after the model control group was fed on high-fat diet, rats in the blank control group and the model control groups were subjected to blood collection (1˜1.5 mL of blood was collected from the tail vein) without fasting. After blood collection, the serum was quickly separated to a new centrifugal tube, stored at −20° C. before test. […]
In general terms: An ELISA detects its analyte on a solid surface through an enzyme-linked reagent.

Setting [3] is: positive control groups (omega 150 mg/kg; atorvastatin calcium 0.83 mg/kg), 30 days.

Regarding `CC(C)c1c(C(=O)Nc2ccccc2)c(-c2ccccc2)c(-c2ccc(F)cc2)n1CC[C@@H](O)C[C@@H](O)CC(=O)[O-].CC(C)c1c(C(=O)Nc2ccccc2)c(-c2ccccc2)c(-c2ccc(F)cc2)n1CC[C@@H](O)C[C@@H](O)CC(=O)[O-].[Ca+2]` [Atorvastatin Calcium, atorvastatin calcium], the “Final Weight (Mean Value ± Standard Deviation)” value in test [1] is reported as 442.00 ± 40.77. Besides, the “Effect on Apo-β content in serum of SD rats” value in test [2] (compared with the model control group) is on record as “decreased”. In test [2] (setting [3]), the “Apo-A1 levels in serum (Mean Value ± Standard Deviation)” value was 2693.75 ± 435.48 µg/mL, the “Apo-β levels in serum (Mean Value ± Standard Deviation)” value came to 735.00 ± 264.71 µg/mL, the “HDL-C levels in serum (Mean Value ± Standard Deviation)” value worked out at 919.74 ± 150.63 µmol/L and the “LDL-C levels in serum (Mean Value ± Standard Deviation)” value was determined as 853.24 ± 235.19 µmol/L. For the same compound, in test [2] (setting [3]), the “Ox-HDL-C levels in serum (Mean Value ± Standard Deviation)” value turned out to be 35.88 ± 7.30 µg/L, the “Ox-LDL-C levels in serum (Mean Value ± Standard Deviation)” value worked out at 45.44 ± 7.40 µg/L, the “TC levels in serum (Mean Value ± Standard Deviation)” value turned out to be 1117.14 ± 171.07 µmol/L and the “TG levels in serum (Mean Value ± Standard Deviation)” value was 189.71 ± 45.83 µmol/L.
